This is an account of results in US20240417687A1, “THYMIC CELLS AND METHODS OF MAKING” (Thymmune Therapeutics, Inc., priority 2021, published 2024).

Assay type in all cases: cell-based, human
One experiment has as its system iPSCs. Description: Optimizing 3D differentiation of iPSCs to definitive endoderm (Experiments 21, 22, 23). The procedure: In this experiment, the effect of adding PI-103 to Experiment 21/22 Medium B was tested. The effect of transitioning to 2D culture at the AFE stage was also tested. Differentiation of iPSCs into DE requires proper timing for introducing small molecules and growth factors. On Day 1-2, Experiment 21/22 Media A comprising DMEM-F12 and factors/small molecules namely Activin A (100 ng/mL), CHIR99021 2 μM, ITS (1:1000), KSR (0.05%), Pen strep (100×), PI-103 (25 nM) and NEAA (100×) was added. On day 3-5, Experiment 21/22 Media B comprising DMEM-F12 and factors/small molecules namely Activin A (100 ng/mL), LDN193189 (200 nM), PI-103 (25 nM), Insulin-Transferrin-Selenium (ITS-G) (1:1000), KSR (0.05%), Pen strep (100×) and NEAA (100×) was added. In Experiment 22, PI-103 (25 nM) was excluded. The effect of transitioning from 3D to 2D culture at VPE stage was tested. The impact of CHIR99021 addition to Experiment 23 Medium B was tested. Differentiation of iPSCs into DE requires proper timing for introducing small molecules and growth factors. On day 1-2, cells were cultured in Experiment 23 Media A comprising DMEM-F12 and small molecules/factors namely Activin A (100 ng/mL), CHIR99021 2 μM, ITS (1:1000), KSR (0.05%), Pen strep (100×), PI-103 (25 nM), and NEAA (100×). On day 3-4, Experiment 23 Media B containing DMEM-F12 and small molecules/factors namely Activin A (100 ng/mL), CHIRR9901 (2 μM), LDN193189 (200 nM), PI-103 (25 nM), Insulin-Transferrin-Selenium (ITS-G) (1:1000), KSR (0.05%), Pen strep (100×), and NEAA (100×). On day 5, Experiment 23 Media B containing DMEM-F12 and small molecules/factors namely Activin A (100 ng/mL), LDN193189 (200 nM), PI-103 (25 nM), Insulin-Transferrin-Selenium (ITS-G) (1:1000), KSR (0.05%), Pen strep (100×), NEAA (100×) was added. Experiment 21 and Experiment 23 described in Example 11 were designed to identify optimal conditions for 3D differentiation to DE. […] Sox17/FoxA2 double positive were higher in Experiment 23, whereas there were more Sox17/FoxA2 negative cells in Experiment 21 and Experiment 22.

In another experiment the test system is TEP populations. Description: Oct4 and Nanog expression in TEP populations treated with PluriSIn-1. The procedure: On days 19-22, cells were cultured in TEC media. On day19, equal amount of freshly made TEC media (500 μl) was replaced gently without disturbing the aggregates. TEC media was prepared to include Basal Media: DMEM-F12, FGF10 (50 ng/ml), IL-22 (20 ng/ml), FGF7/KGF (50 ng/ml), RANKL/TRANCE (50 ng/ml), BMP4 (50 ng/ml), FGF8b (50 ng/ml), CHIRR99 (2 μM), Ascorbic Acid (10 μM), Insulin-Transferrin-Selenium (ITS-G) (1:1000), KSR (0.0025%), Pen strep (1:200), B27 (without VIT A) (1:200), Glutamax (1:100), BME (1:100), N2(1:100), NEAA (1:400), Glutamax (100×), and BME (100×). On day 20, equal amount of freshly prepared TEC media (500 ul) along with Plurisin #1(20 μM) was added (Groups-Untreated and Treated). On day21, equal amount of freshly made TEC media (500 ul) was replaced gently without disturbing the aggregates. On day22, the cells were treated with Accutase and were frozen using Hypothermosol-FRS Media. The cells were split into the following groups for experimentation. Group 37FT1 (8.85M Treated and 9.5M untreated groups) was thawed in 3D and maintained in TEC media (Y27-10 uM on day1) for 6 days. On Day 6, cells were treated with 20 μM Plurisin #1 (24 hours) and were transplanted on day7 into 4 animals. Group 37FT2 (8.85M per plate) was thawed in 3D and maintained in TEC media (Y27-10 uM on day1) for 6 days. […]

The subject of another experiment is TEPs. Briefly: Extended culture of TEPs with TEP medium supplemented with growth factors (Experiments 29, 30). The settings on record: TEP medium supplemented with FGF7, FGF10 and RANKL together, Experiment 29 and 30. The procedure: For this differentiation step, VPE cells were cultured in thymic cell media e.g. TEP media or TEC media. On days 13-18, media was replaced for Experiment 29 TEP media containing Basal Media: DMEM-F12, FGF10 (50 ng/ml), BMP4 (50 ng/ml), FGF8b (50 ng/ml), CHIRR99 (2 μM), Ascorbic Acid (10 μM), Insulin-Transferrin-Selenium (ITS-G) (1:1000), KSR (0.0025%), Pen strep (1:200), B27 (without VIT A) (1:200), Glutamax (1:100), BME (1:100), N2(1:100), and NEAA (1:400). On day 13, equal amount of freshly made TEP media (500 ul) was added gently without disturbing the aggregates. On day 14-18, 50% of supernatant was removed and freshly prepared TEP media (500 ul) was added per well. On days 19-22, media was replaced with TEC media containing Basal Media: DMEM-F12, FGF10 (50 ng/ml), FGF7/KGF (50 ng/ml), RANKL/TRANCE (50 ng/ml), BMP4 (50 ng/ml), FGF8b (50 ng/ml), CHIRR99 (2 μM), Ascorbic Acid (10 μM), Insulin-Transferrin-Selenium (ITS-G) (1:1000), KSR (0.0025%), Pen strep (1:200), B27 (without VIT A) (1:200), Glutamax (1:100), BME (1:100), N2(1:100), NEAA (1:400), Glutamax (100×), and BME (100×). On days 20-22, 50% of supernatant was removed and freshly prepared TEC media (500 ul) was added per well. On day 22, Experiment 29B was reseeded as single cells in suspension (3D) and on Geltrex coated plates (2D). Remaining cells were frozen. Frozen Experiment 29B were thawed in suspension and maintained in TEC media.
For this differentiation step, VPE cells were cultured in thymic cell media e.g. TEP media or TEC media. […]
In experiments 16 through 23, the expression of FOXN1 and other markers expression by Day5 of TEP differentiation. […] In Exp 29-TEPs, FOXN1 expression was detected at week 1 of TEP stage. When TEPs were reseeded into 2D culture, no FOXN1 expression was detected after 1 week but FOXN1 was detected by week 2 in culture. In Exp29B-TEP2-3D, where single cell TEP were resuspended into 3D-aggregate culture, FOXN1 expression was detected already by 1 week and became even higher by second week.

Experiment [1] relates to Spheroids induced to differentiate from iPSC state to TEP. Description: Effect of timing of BMP addition on developmental gene expression in spheroids differentiating from iPSC to TEP. The settings on record: with or without BMP at early and late TEP stages. The source says: Differentiation of DE cells to thymic cells can be promoted by adding factors known to be important for DE to thymic differentiation. An example is BMP which is known to be crucial for the development and maturation of thymic progenitor cells from the third pharyngeal pouch. The impact of the timing of addition of BMP was explored (FIG. 2). Spheroids were induced to differentiate from iPSC state to TEP and timing of addition of BMP was varied. At different stages (DE, AFE, VPE, early and late TEP) spheroids were collected and analyzed for biomarkers related to the different stages. We compared condition with or without BMP at early and late TEP stages.

Regarding `Cc1c[nH]c(-c2cnc(NCCNc3ccc(C#N)cn3)nc2-c2ccc(Cl)cc2Cl)n1` [CHIRR99, CHIR99021], the differentiation entry in the experiment with iPSCs (2 μM added to Experiment 23 Medium B, day 3-4) is recorded as “enhance differentiation”. The “differentiation efficiency to DE” value in the experiment with iPSCs (Experiment 23 with Wnt activator versus Experiment 21 and 22 without) is given as “increased differentiation efficiency to DE”.
Take `Oc1cccc(-c2nc(N3CCOCC3)c3oc4ncccc4c3n2)c1` [PI-103]: in the experiment with iPSCs (PI-103 (25 nM) added to Experiment 21/22 Medium B, day 3-5, excluded in Experiment 22), the DE differentiation entry is “enhanced DE differentiation”.
As to `O=C(NNc1ccccc1)c1ccncc1` [PluriSIn-1], the “Oct4 and Nanog expression” value with TEP populations (one 24-hour pulse before freezing and one 24-hr pulse after thawing, compared to one pulse) was “lower Oct4 and Nanog expression”; with TEP populations (one dose alone, different iPSC cell line), “sufficient to reduce Oct4 and Nanog expression”.

B1: RANKL: growth factor important for late maturation of TEPs to TECs (protein, UniProt O14788 140-317, looked up)
Tumor necrosis factor ligand …: IRAEKAMVDGSWLDLAKRSKLEAQPFAHLTINATDIPSGSHKVSLSSWYHDRGWAKISNMTFSNGKLIVNQDGFYYLYANICFRHHETSGDLATEYLQLMVYVTKTSIKIPSSHTLMKGGSTKYWSGNSEFHFYSINVGGFFKLRSGEEISIEVSNPSLLDPDQDATYFGAFKVRDID
Take B1: the “duration of TEP culture while maintaining the expression of FOXN1” value (shortened to “duration”) in the experiment on TEPs was “extended beyond 5 days and up to 2 weeks”.

B2: BMP: growth factor BMP4, crucial for development and maturation of thymic progenitor cells (protein, UniProt P12644 293-408, looked up)
Bone morphogenetic protein 4: SPKHHSQRARKKNKNCRRHSLYVDFSDVGWNDWIVAPPGYQAFYCHGDCPFPLADHLNSTNHAIVQTLVNSVNSSIPKACCVPTELSAISMLYLDEYDKVVLKNYQEMVVEGCGCR
modifications: Bone morphogenetic protein 4
notes: growth factor BMP4, crucial for development and maturation of thymic progenitor cells
With B2, in experiment [1], the “PAX1 and PAX9 expression” value was “suppressed”; the “TBX1 and HOXA3 expression” value is listed as “upregulated”.

B3: FGF10: growth factor important for late maturation of TEPs to TECs (protein, UniProt O15520 38-208, looked up)
Fibroblast growth factor 10: QALGQDMVSPEATNSSSSSFSSPSSAGRHVRSYNHLQGDVRWRKLFSFTKYFLKIEKNGKVSGTKKENCPYSILEITSVEIGVVAVKAINSNYYLAMNKKGKLYGSKEFNNDCKLKERIEENGYNTYASFNWQHNGRQMYVALNGKGAPRRGQKTRRKNTSAHFLPMVVHS
Take B3: the “duration” value in the experiment with TEPs is “extended beyond 5 days and up to 2 weeks”.

B4: FGF7: growth factor important for late maturation of TEPs to TECs (protein, UniProt P21781 32-194, looked up)
Fibroblast growth factor 7: CNDMTPEQMATNVNCSSPERHTRSYDYMEGGDIRVRRLFCRTQWYLRIDKRGKVKGTQEMKNNYNIMEIRTVAVGIVAIKGVESEFYLAMNKEGKLYAKKECNEDCNFKELILENHYNTYASAKWTHNGGEMFVALNQKGIPVRGKKTKKEQKTAHFLPMAIT
Consider B4, for which the “duration” value with TEPs was “extended beyond 5 days and up to 2 weeks”.
